Assay results: patent US20100056524A1, “Compound” (priority 2008, published 2010)
Where a name gives a salt, the structure may show the parent alone. Read-outs that look alike come from different tables or passages of the source.

Key:
PLK1 (Okadaic Acid) = target: T1, PLK1 (Okadaic Acid) (Homo sapiens, UniProt P53350); test: PLK1 (Okadaic Acid) protein kinase assay; type: biochemical; details: for remaining activity at 10 µM: 10 μM compound; for residual kinase activity PLK1 (Okadaic Acid): 1 μm compound; for remaining activity at 1 µM: 1 μM compound
T1 construct: All protein kinases were of human origin and encoded full length proteins, unless indicated otherwise; made in house; host or cells: probably Sf21 insect cells treated with okadaic acid (inferred from the row name; the text says this only of Aurora B and C)
Source text: (§1) All protein kinases were of human origin and encoded full length proteins, unless indicated otherwise. They were either expressed as glutathione S-transferase (GST) fusion proteins in Escherichia Coli or as hexahistidine (His6)-tagged proteins in insect Sf21 cells. GST fusion proteins were purified by affinity chromatography on glutathione-Sepharose, and His6-tagged proteins on nickel/nitriloacetate-agarose. The procedures for expressing some of the protein kinases used herein have been detailed previously.^8,9 The following sections outline the DNA vectors synthesised and the procedures used to express and purifying protein kinases that have not been reported previously.
(§2) All assays (25.5 μl) were carried out at room temperature (21° C.) and were linear with respect to time and enzyme concentration under the conditions used. Assays were performed for 30 min using Multidrop Micro reagent dispensers (Thermo Electron Corporation, Waltham, Mass. 02454, USA) in a 96-well format. The concentration of magnesium acetate in the assays was 10 mM and the [γ-33P] ATP (800 cpm/pmol) was used at 5, 20 or 50 μM as indicated, in order to be at or below the Km for ATP for each enzyme. Protein kinases assayed at 5 μM ATP were: —ERK1, ERK8, PKBα, MARK3, Aurora C. Protein kinases assayed at 20 μM ATP were: —JNK1, PDK1, CHK1, CHK2, CDK2 and Aurora B. Protein kinases assayed at 50 μM ATP were: —MNK2, IKKepsilon and TBK1.
(§3) The assays were initiated with MgATP, stopped by addition of 5 μl of 0.5 M orthophosphoric acid and spotted on to P81 filterplates using a unifilter harvester (PerkinElmer, Boston, Mass. 02118, USA). The IC50 values of inhibitors were determined after carrying out assays at 10 different concentrations of each compound.
(§4) Unless stated otherwise, enzymes were diluted in 50 mM Tris/HCl pH 7.5, 0.1 mM EGTA, 1 mg/ml BSA, 0.1% (v/v) 2-mercaptoethanol and assayed in 50 mM Tris/HCl pH 7.5, 0.1 mM EGTA, 0.1% (v/v) 2-mercaptoethanol.

p38g MAPK = target: T2, p38g MAPK (Homo sapiens, UniProt P53778); test: p38g MAPK protein kinase assay; type: biochemical; details: for remaining activity at 10 µM: 10 μM compound; for residual kinase activity p38g MAPK: 1 μm compound; for remaining activity at 1 µM: 1 μM compound
T2 construct: All protein kinases were of human origin and encoded full length proteins, unless indicated otherwise; made in house
T2 sequence (P53778 1-367): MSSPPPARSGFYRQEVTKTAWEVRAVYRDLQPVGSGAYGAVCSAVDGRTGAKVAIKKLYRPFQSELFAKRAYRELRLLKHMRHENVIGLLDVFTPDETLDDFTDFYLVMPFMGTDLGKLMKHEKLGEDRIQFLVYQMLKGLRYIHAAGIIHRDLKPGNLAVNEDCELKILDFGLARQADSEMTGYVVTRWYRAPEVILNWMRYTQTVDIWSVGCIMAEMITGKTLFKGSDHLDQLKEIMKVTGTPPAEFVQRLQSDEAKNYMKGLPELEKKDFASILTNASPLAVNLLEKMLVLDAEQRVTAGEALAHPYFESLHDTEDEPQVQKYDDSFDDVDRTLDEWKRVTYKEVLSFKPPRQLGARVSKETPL
Source text: as §1, §2, §3, §4

PKBa = target: T3, PKBa (Homo sapiens, UniProt P31749, S473D); test: PKBa protein kinase assay; type: biochemical; details: for remaining activity at 10 µM: 10 μM compound
T3 construct: protein kinase Bα[118-480][S473D]; His6; made in house; host or cells: insect Sf21 cells
Source text: as §1
The following kinases were expressed in Sf21 cells: Aurora B and Aurora C, extra-cellular signal-regulated kinase 8 (ERK8), microtubule affinity regulating kinase 3 (MARK3), protein kinase Bα[118-480][S473D], protein kinase Bβ (PKBβ[120-481][S474D], 3-phosphoinositide-dependent protein kinase-1 [52-556]
(§5) In order to produce activated forms of Aurora B and Aurora C, insect Sf21 cells were incubated for 1 h with the protein phosphatase inhibitor okadaic acid (50 nM). JNK isoforms were activated with MKK4 and MKK7, MNK2 with p38α MAPkinase; PKBα, PKBβ, with PDK1, and ERK1 with MKK1. To activate CDK2, bacterial pellets expressing cyclin A2 and CDK2 were mixed together, lyse and purified on glutathione Sepharose. The GST-tags were removed by cleavage with PreScission protease and the CDK2-cyclin A2 complex purified by chromatography on SP-Sepharose. It was then activated with CAK1/CDK7 followed by chromatography on nickel-nitrilotriacetate agarose to remove CAK1/CDK7, which binds to this column by virtue of its C-terminal His6 tag. All the other protein kinases were active as expressed.
as §2, §3, §4

PAK4 = target: T4, PAK4 (Homo sapiens, UniProt O96013); test: PAK4 protein kinase assay; type: biochemical; details: for remaining activity at 10 µM: 10 μM compound; for residual kinase activity PAK4: 1 μm compound; for remaining activity at 1 µM: 1 μM compound
T4 construct: All protein kinases were of human origin and encoded full length proteins, unless indicated otherwise; made in house
Source text: as §1, §2, §3, §4

SmMLCK = SmMLCK protein kinase assay; type: biochemical, human; details: for residual kinase activity: SmMLCK
Source text: as §1, §2, §3, §4

MNK2 = target: T5, MNK2 (Homo sapiens, UniProt Q9HBH9); test: MNK2 protein kinase assay; type: biochemical; details: for remaining activity at 10 µM: 10 μM compound; for residual kinase activity MNK2: 1 μm compound; for remaining activity at 1 µM: 1 μM compound
T5 construct: All protein kinases were of human origin and encoded full length proteins, unless indicated otherwise; GST; made in house; host or cells: E. coli
Source text: as §1
The following proteins were expressed in E. coli: —CHK2[5-543], cyclin-dependent protein kinase 2 (CDK2), MAP kinase-interacting kinase 2 (MNK2), extra-cellular signal-regulated kinase 1 (ERK1).
as §5, §2, §3
ERK1 and ERK8 were both assayed against myelin basic protein (MBP, 0.33 mg/ml). MARK3 was assayed against the peptide […] (300 μM), MNK2 against the eIF4E protein (0.5 mg/ml). PKBβ was assayed against the peptide […] (30 μM). TBK1 were assayed against ([…]) (300 μM). The substrates used for other protein kinases were described previously.^8,9
as §4

[1] = read-out: residual kinase activity PLK1 (Okadaic Acid)
[2] = read-out: residual kinase activity p38g MAPK
[3] = read-out: residual kinase activity PKBa
[4] = 1 μm compound, read-out: residual kinase activity PKBa
[5] = read-out: residual kinase activity PAK4
[6] = read-out: residual kinase activity MNK2
[7] = PLK1 (Okadaic Acid), read-out: residual kinase activity
[8] = p38g MAPK, read-out: residual kinase activity
[9] = PKBa, 1 μM compound, 5 μM ATP, read-out: residual kinase activity
[10] = PKBa, 5 μM ATP, read-out: residual kinase activity
[11] = PAK4, read-out: residual kinase activity
[12] = MNK2, 50 μM ATP, read-out: residual kinase activity

T4 sequence (O96013 whole entry): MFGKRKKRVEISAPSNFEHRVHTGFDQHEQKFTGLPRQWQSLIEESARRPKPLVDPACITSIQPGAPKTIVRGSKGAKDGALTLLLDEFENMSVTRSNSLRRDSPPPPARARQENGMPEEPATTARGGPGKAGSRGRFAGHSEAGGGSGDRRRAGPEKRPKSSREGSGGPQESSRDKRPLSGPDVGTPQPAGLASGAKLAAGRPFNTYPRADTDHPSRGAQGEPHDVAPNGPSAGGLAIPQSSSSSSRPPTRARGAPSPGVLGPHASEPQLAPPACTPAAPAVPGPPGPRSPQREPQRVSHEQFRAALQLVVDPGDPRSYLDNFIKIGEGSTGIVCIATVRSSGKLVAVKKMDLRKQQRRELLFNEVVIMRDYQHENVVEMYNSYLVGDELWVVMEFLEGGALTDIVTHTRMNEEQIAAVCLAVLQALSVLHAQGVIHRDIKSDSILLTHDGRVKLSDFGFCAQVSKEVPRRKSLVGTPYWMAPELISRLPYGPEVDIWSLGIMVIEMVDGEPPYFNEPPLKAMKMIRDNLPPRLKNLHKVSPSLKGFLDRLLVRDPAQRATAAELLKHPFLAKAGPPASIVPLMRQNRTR
T1 sequence (P53350 whole entry): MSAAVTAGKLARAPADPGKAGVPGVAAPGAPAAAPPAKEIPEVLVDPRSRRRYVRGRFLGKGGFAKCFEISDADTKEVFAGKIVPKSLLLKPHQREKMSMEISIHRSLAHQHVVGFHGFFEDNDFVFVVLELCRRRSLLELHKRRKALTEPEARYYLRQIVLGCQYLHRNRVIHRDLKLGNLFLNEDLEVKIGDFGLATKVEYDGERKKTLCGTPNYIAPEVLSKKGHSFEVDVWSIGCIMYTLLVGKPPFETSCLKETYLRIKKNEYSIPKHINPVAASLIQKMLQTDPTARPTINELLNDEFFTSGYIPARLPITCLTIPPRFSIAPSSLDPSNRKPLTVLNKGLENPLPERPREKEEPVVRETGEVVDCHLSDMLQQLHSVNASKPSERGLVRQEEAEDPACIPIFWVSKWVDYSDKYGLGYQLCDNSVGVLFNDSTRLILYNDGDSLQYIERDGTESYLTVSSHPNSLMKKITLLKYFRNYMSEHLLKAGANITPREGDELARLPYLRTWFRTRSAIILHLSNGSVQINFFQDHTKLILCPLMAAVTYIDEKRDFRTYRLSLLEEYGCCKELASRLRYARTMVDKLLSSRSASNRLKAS
T3 sequence (P31749 118-480 S473D): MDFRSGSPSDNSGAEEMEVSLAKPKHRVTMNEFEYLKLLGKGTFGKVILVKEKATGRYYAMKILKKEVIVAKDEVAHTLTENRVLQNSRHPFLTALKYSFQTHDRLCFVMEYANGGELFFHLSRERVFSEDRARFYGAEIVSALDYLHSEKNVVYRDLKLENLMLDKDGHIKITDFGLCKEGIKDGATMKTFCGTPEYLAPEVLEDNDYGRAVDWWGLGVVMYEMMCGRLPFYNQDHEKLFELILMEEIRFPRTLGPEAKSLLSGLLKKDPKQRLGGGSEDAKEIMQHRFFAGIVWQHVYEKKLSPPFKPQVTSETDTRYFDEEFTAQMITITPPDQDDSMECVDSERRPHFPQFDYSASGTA
T5 sequence (Q9HBH9 whole entry): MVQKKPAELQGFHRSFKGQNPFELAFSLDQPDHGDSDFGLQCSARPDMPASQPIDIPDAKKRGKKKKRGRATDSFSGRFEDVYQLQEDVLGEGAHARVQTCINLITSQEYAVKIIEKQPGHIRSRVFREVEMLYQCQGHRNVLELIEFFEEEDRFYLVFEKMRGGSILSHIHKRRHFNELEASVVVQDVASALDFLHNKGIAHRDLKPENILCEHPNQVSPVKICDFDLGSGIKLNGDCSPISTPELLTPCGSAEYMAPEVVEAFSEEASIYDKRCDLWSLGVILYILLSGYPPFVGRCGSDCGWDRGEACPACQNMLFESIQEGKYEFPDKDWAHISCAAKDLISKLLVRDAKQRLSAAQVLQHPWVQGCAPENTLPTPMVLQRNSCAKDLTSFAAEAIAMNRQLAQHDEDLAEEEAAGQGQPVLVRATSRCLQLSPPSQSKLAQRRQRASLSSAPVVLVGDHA

O=C(NCCCNc1nc(Nc2cccc(F)c2)ncc1Br)C1CCC1 [Compound A, cyclobutanecarboxylic acid {3-[5-bromo-2-(3-fluoro-phenylamino)-pyrimidin-4-ylamino]-propyl}-amide, reference compound]
remaining activity at 10 µM (PLK1 (Okadaic Acid); [1]): 39% | residual kinase activity PLK1 (Okadaic Acid) (PLK1 (Okadaic Acid)): 95% | remaining activity at 10 µM (p38g MAPK; [2]): 17% | residual kinase activity p38g MAPK (p38g MAPK): 65% | remaining activity at 10 µM (PKBa; [3]): 92% | remaining activity at 1 µM (PKBa; [4]): 107% | remaining activity at 10 µM (PAK4; [5]): 6% | residual kinase activity PAK4 (PAK4): 32% | residual kinase activity SmMLCK (SmMLCK; 10 μM compound): 59% | residual kinase activity SmMLCK (SmMLCK; 1 μm compound): 101% | remaining activity at 10 µM (MNK2; [6]): 7% | residual kinase activity MNK2 (MNK2): 6%

O=C(NCCCNc1nc(Nc2cccc(F)c2)ncc1C1CC1)C1CCC1 [Example 23, Cyclobutanecarboxylic acid {3-[5-cyclopropyl-2-(3-fluoro-phenylamino)-pyrimidin-4-ylamino]-propyl}-amide]
remaining activity at 10 µM (PLK1 (Okadaic Acid); [1]): 46% | residual kinase activity PLK1 (Okadaic Acid) (PLK1 (Okadaic Acid)): 66% | remaining activity at 1 µM (PLK1 (Okadaic Acid); [7]): 66% | remaining activity at 10 µM (PLK1 (Okadaic Acid); [7]): 46% | remaining activity at 10 µM (p38g MAPK; [2]): 91% | residual kinase activity p38g MAPK (p38g MAPK): 81% | remaining activity at 1 µM (p38g MAPK; [8]): 81% | remaining activity at 10 µM (p38g MAPK; [8]): 91% | remaining activity at 10 µM (PKBa; [3]): 91% | remaining activity at 1 µM (PKBa; [4]): 100% | remaining activity at 1 µM (PKBa; [9]): 100% | remaining activity at 10 µM (PKBa; [10]): 91% | remaining activity at 10 µM (PAK4; [5]): 31% | residual kinase activity PAK4 (PAK4): 72% | remaining activity at 1 µM (PAK4; [11]): 72% | remaining activity at 10 µM (PAK4; [11]): 31% | residual kinase activity SmMLCK (SmMLCK; 10 μM compound): 74% | residual kinase activity SmMLCK (SmMLCK; 1 μm compound): 72% | residual kinase activity (SmMLCK; 1 μM compound): 72% | residual kinase activity (SmMLCK; 10 μM compound): 74% | remaining activity at 10 µM (MNK2; [6]): 10% | residual kinase activity MNK2 (MNK2): 39% | remaining activity at 1 µM (MNK2; [12]): 39% | remaining activity at 10 µM (MNK2; [12]): 10%

O=C(NCCCNc1nc(Nc2cccc(N3CCCC3=O)c2)ncc1C1CC1)c1cccs1 [Example 47, Thiophene-2-carboxylic acid (3-{5-cyclopropyl-2-[3-(2-oxo-pyrrolidin-1-yl)-phenylamino]-pyrimidin-4-ylamino}-propyl)-amide. Hydrochloride salt]
remaining activity at 1 µM (PLK1 (Okadaic Acid); [7]): 90% | remaining activity at 10 µM (PLK1 (Okadaic Acid); [7]): 64% | remaining activity at 1 µM (p38g MAPK; [8]): 97% | remaining activity at 10 µM (p38g MAPK; [8]): 77% | remaining activity at 1 µM (PKBa; [9]): 101% | remaining activity at 10 µM (PKBa; [10]): 90% | remaining activity at 1 µM (PAK4; [11]): 80% | remaining activity at 10 µM (PAK4; [11]): 57% | residual kinase activity (SmMLCK; 1 μM compound): 102% | residual kinase activity (SmMLCK; 10 μM compound): 81% | remaining activity at 1 µM (MNK2; [12]): 36% | remaining activity at 10 µM (MNK2; [12]): 16%

O=C(NCCCNc1nc(Nc2cccnc2)ncc1C1CC1)c1cccs1 [Example 50, Thiophene-2-carboxylic acid {3-[5-cyclopropyl-2-(pyridin-3-ylamino)-pyrimidin-4-ylamino]-propyl}-amide]
remaining activity at 1 µM (PLK1 (Okadaic Acid); [7]): 82% | remaining activity at 10 µM (PLK1 (Okadaic Acid); [7]): 60% | remaining activity at 1 µM (p38g MAPK; [8]): 93% | remaining activity at 10 µM (p38g MAPK; [8]): 80% | remaining activity at 1 µM (PKBa; [9]): 109% | remaining activity at 10 µM (PKBa; [10]): 97% | remaining activity at 1 µM (PAK4; [11]): 75% | remaining activity at 10 µM (PAK4; [11]): 35% | residual kinase activity (SmMLCK; 1 μM compound): 88% | residual kinase activity (SmMLCK; 10 μM compound): 75% | remaining activity at 1 µM (MNK2; [12]): 56% | remaining activity at 10 µM (MNK2; [12]): 21%
